Reference: patent publication US20220168392A1 (priority 2019, published 2022)
Square brackets hold non-standard residues; d marks the D form. * marks the point of attachment. 2Nal = N[C@@H](Cc1ccc2ccccc2c1)C(=O)O; Propionyl = CCC(=O)*; Sar = CNCC(=O)O

Key:
[1] = test system: dogs after whole body radiation at an LD50 exposure; assay: Dog pilot whole body irradiation study; format: in vivo; details: single 10 mg/kg dose 24 hours after whole body radiation at LD50
Method: A pilot radio-mitigation study was conducted in dogs with RWJ-800088.

[2] = test system: healthy men; assay: Study NAP1001: single IV dose in healthy men (platelet counts, safety); format: in vivo, human; design: key to pharmacodynamics (PD) effect class of the dose (beneficial effects on survival): **: large pharmacodynamics (PD) effect; *: modest effect; details: for Humans Max Platelet Ratio: NAP 1001
Method: In the FIH, single dose, Phase 1 clinical study NAP1001, 40 healthy men were enrolled, and 30 subjects received a single IV dose of RWJ-800088 as a 5-mg/mL solution in saline (dose range 0.375 to 3 μg/kg); 10 subjects received placebo. […] Thirty-three (83%) of 40 subjects reported at least 1 treatment-emergent adverse event throughout the study. Similar proportions of subjects reported treatment-emergent adverse events following administration of placebo (9 [90%] of 10 subjects) and RWJ-800088 (24 [80%] of 30 subjects). […] Mean platelet counts increased with increasing RWJ-800088 dose compared with placebo from Day 6 onwards, peaking at Days 10 to 12 before gradually returning to baseline by Day 21 (FIG. 19).
The ratio of the maximum platelet counts to the baseline platelet counts following single escalating doses of RWJ-800088 to mice, rats, dogs, rhesus monkeys and human healthy volunteers is shown in Table 5. The dose required to achieve a 2-3.5-fold elevation in humans is ˜100-fold lower compared to mice, ˜1,000-fold lower compared to rats and >10,000-fold lower compared to canines and NHPs. […] The species differences in potency has been described for other TPO mimetics in the literature and is attributed to differences in receptor affinity (Erickson-Miller C L, et al. Discovery and characterization of a selective, nonpeptidyl thrombopoietin receptor agonist. Exp. Hematol. 2005; 33:85-93). […] It is discovered that the dose of RWJ-800088 that produces a survival benefit and protects against vascular and organ injury is the dose that produces a 2-4 fold elevation of platelets (Table 6).

[3] = test system: CD2F1 male mice exposed to supra-lethal TBI; assay: Survival and recovery from gastrointestinal injury at supra-lethal TBI; format: in vivo, mouse
Method: Data are expressed as mean±Standard error of mean (SEM). Irradiated TPOm group compared with saline treated group, statistical significance by Student T test (p≤0.0001)
Bacterial translocation was determined as bacterial load in liver and spleen tissue as a result of radiation injury to the intestines and was quantified by real-time polymerase chain reaction (PCR) using the 16S rRNA gene consensus sequence. Naïve jejunum serves as a positive control and naïve spleen and liver serve as negative controls/baseline values. Data are expressed as mean±Standard error of mean (SEM). Irradiated TPOm group compared with saline treated group, statistical significance by Student T test (p≤0.0001).
Data are expressed as mean±Standard error of mean (SEM). Irradiated TPOm group compared with saline treated group, statistical significance by Student T test (p≤0.0001). Serum amaloyd A (SAA) and pro-calcitonin (PCT), sepsis markers, were both measured by ELISA.
Jejunum samples were collected at days 1, 3, 7, 9 post-TBI. Representative sections were stained with H&E. There was a 100% increased survival in the RWJ-800088 treated mice compared to the saline treated animals (FIG. 9A—Kaplan Meier plot).

[4] = test system: mouse bone marrow cells; assay: Hematopoietic progenitor clonogenic (CFU) assay of bone marrow after 7 Gy TBI; format: in vivo
Method: Hematopoietic Progenitor Clonogenic Assay: Clonogenicity of mouse bone marrow cells was quantified in standard semisolid cultures using 1 mL of Methocult GF+ system for mouse cells (Stem Cell Technologies Inc., Vancouver, BC) according to the manufacturer's instructions. Briefly, colony forming units (CFU) were assayed on days 0 (2 h post-TBI), 1, 3, 7, 15, and 30 after 7 Gy exposure or unirradiated mice. Cells from three femurs from different animals were pooled, washed twice with IMDM and seeded at 1 to 5×10^4 cells per 35 mm cell culture dishes (BD Biosciences, San Jose, Calif.). Each sample was plated in duplicate to be scored 14 days after plating. Granulocyte-macrophage colony forming units (CFU-GM), granulocyte-erythrocyte-monocyte-[…] CFU (CFU-GEMM), colony-forming unit-erythroid (CFU-E) and erythroid burst-forming units (BFU-E) were identified and quantified following the manufacturer's instructions. Colonies were counted 14 days after plating using a Nikon TS100F microscope. Fifty or more cells were considered one colony. Data were expressed as mean f standard error of mean (SEM). Statistical significance was determined between irradiated vehicle treated and RWJ-800088-treated groups.

[5] = test system: Mice, ear vein; assay: Ear vein model in mice (Table 6); format: in vivo, mouse; details: 0.3 mg/kg, whole wrapped cell: Reduced white cell adhesion to endothelium and vascular permeability
[6] = test system: female rats exposed to LD70 total body gamma radiation; assay: Rat whole body irradiation study; format: in vivo
Method: FIGS. 16A-B show the percent survival in female SD Rats (n=8/group) administered RWJ-800088 (TPOm) at different time points and dose levels—FIG. 16A: 3000 μg/kg at 6, 24 and 48 hours post TBI (7.18 Gy), and FIG. 16B: 300 and 3000 μg/kg at 24 hours post TBI (7.18 Gy).
RWJ-800088 was administered at a 3000 μg/kg dose by SC injection to female rats (n=8) at 6, 24, or 48 hours and additionally 300 μg/kg dose at 24 hours after exposure to an LD70 total body dose of gamma radiation (Gammacell 3000 irradiator).

[7] = test system: Rats, prostate irradiation; assay: Prostate irradiation in rats (Table 6); format: in vivo, rat; details: 3 mg/kg, whole wrapped cell: Protection of vascular size and function

methoxypolyethyleneglycol20000-propionyl-L-Isoleucyl-L-Glutamyl-Glycyl-L-Prolyl-L-Threonyl-L-Leucyl-L-Arginyl-L-Glutaminyl-L-2-Naphthylalanyl-L-Leucyl-L-Alanyl-L-Alanyl-L-Arginyl-Sarcosyl-Ne-(methoxypolyethyleneglycol20000-propionyl-L-Isoleucyl-L-Glutamyl-Glycyl-L-Prolyl-L-Threonyl-L-Leucyl-L-Arginyl-L-Glutaminyl-L-2-Naphthylalanyl-L-Leucyl-L-Alanyl-L-Alanyl-L-Arginyl-Sarcosyl-)-Lysinamide ({mPEG 20 kDa-Propionyl}-IEGPTLRQ[2Nal]LAAR[Sar]K-NH2; also: dimer: second identical mPEG-propionyl chain on Lys Nε of C-terminal lysinamide) [RWJ-800088]
Blood transfusions [1]: 1.25/ /animal
Days of febrile neutropenia [1]: 1.08
Diarrhea [1]: 2/12
Mean survival time [1]: 36 days
Mild to moderate necrohemorrhagic bronchioalveolar or minimal subacute bronchioalveolar inflammation [1]: 6/12
Mild to severe hematopoietic bone marrow hypocellularity [1]: 6/12
Mortality [1]: 7/12
Neutropenia nadir [1]: 9e+07 L⁻¹
Severe neutropenia duration [1]: 5.4
subjects reporting treatment-emergent adverse events ([2]; 24 of 30 subjects, single IV dose 0.375 to 3 μg/kg): 80%
Average of the Maximum Platelet Elevation/Baseline Platelet Counts ([2]; Human, dose 3 μg/kg): 3.3
Dose for 2.0-4x Platelet Elevation in Healthy Subjects ([2]; Humans): ≥2.25 µg/kg
pharmacodynamics (PD) effect class of the dose (beneficial effects on survival) ([2]; Humans, dose 2.25 μg/kg): **
pharmacodynamics (PD) effect class of the dose (beneficial effects on survival) ([2]; Humans, dose 3 μg/kg): **
Humans Max Platelet Ratio ([2]; dose 0.375 μg/kg): 1.4 ± 0.3
Humans Max Platelet Ratio ([2]; dose 0.75 μg/kg): 1.8 ± 0.4
Humans Max Platelet Ratio ([2]; dose 1.5 μg/kg): 1.9 ± 0.7
Humans Max Platelet Ratio ([2]; dose 2.25 μg/kg): 2.1 ± 0.8
Humans Max Platelet Ratio ([2]; dose 3 μg/kg): 3.1 ± 1.1
enhancement of platelets over background ([2]; humans, 3 μg/kg (FIG. 19)): 3.5 fold
incidence of adverse events, dose relation ([2]; single IV dose 0.375 to 3 μg/kg): not dose related
tolerability ([2]; single IV doses up to and including 3 μg/kg, healthy men): well tolerated
bacterial translocation to the liver and spleen ([3]; 1 mg/kg 24 hours prior to TBI (12.5 Gy per FIG. 10 legend)): significantly reduced
number of viable crypts in jejunum ([3]; 11 Gy, 1 mg/kg 24 h prior to TBI (FIG. 9C)): significant increase
increased survival compared to saline treated animals ([3]; 11 Gy, 1 mg/kg 24 h prior to TBI, 8 mice/group/time point (FIG. 9A)): 100%
circulating sepsis biomarkers, serum amyloid A and procalcitonin ([3]; nine days post-TBI 11 Gy, 1 mg/kg 24 hours prior to TBI): significant reduction
total number of colonies in the vehicle-treated group compared to the RWJ-800088 treated group ([4]; day 15 post-TBI 7 Gy, 24 h pre-TBI administration): significantly lower
GM, GEMM, BFU-E and CFU-E, vehicle-treated vs RWJ-800088 treated groups ([4]; day 30 post-TBI 7 Gy): significantly lower (p<0.0001)
Effects [5]: Reduced white cell
Effects ([6]; Rats, whole body irradiation, whole wrapped cell: Enhanced survival, mitigation against thrombocytopenia, anemia): Enhanced survival,
survival vs vehicle and RWJ-800088 at 48 hours post-irradiation ([6]; female rats, 3000 μg/kg SC at 6 and 24 hours post TBI (FIG. 16A)): significantly higher
survival, 3000 μg/kg compared with 300 μg/kg ([6]; female rats, 24 hours post irradiation (FIG. 16B)): substantially increased
Effects [7]: Protection of vascular size
